Literature values in US20240269084A1, “DELAYED RELEASE COMPOSITIONS OF DIMETHYL FUMARATE” (Zim Laboratories Limited, priority 2021, published 2024).
Where a name gives a salt, the structure may show the parent alone.

Q: Which Solubility in water does the source give for `COC(=O)/C=C/C(=O)OC` [Dimethyl fumarate, dimethyl (E) butenedioate] here?
A: highly soluble in water
